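GI50 = concentration required for 50% inhibition of growth. TGI denotes the concentration required for complete inhibition of growth.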
Columns and labels:
Assay in all cases: NCI-60 cell line screen, 384-well format; in the data active means GI50 below about 0.43 µM; inactive means the rest
[1] = tested on: BT-549 breast
[2] = tested on: OVCAR-4 ovarian
[3] = tested on: HOP-92 NSCLC
[4] = tested on: RXF 393 renal
[5] = tested on: NCI-H23 lung
[6] = tested on: MDA-MB-435 melanoma
[7] = tested on: HL-60(TB) leukemia
[8] = tested on: IGROV1 ovarian
[9] = tested on: RPMI-8226 leukemia
[10] = tested on: U251 glioblastoma
[11] = tested on: SF-295 CNS
[12] = tested on: M14 melanoma
[13] = tested on: SK-MEL-2 melanoma
[14] = tested on: MALME-3M melanoma
[15] = tested on: NCI/ADR-RES ovarian
[16] = tested on: SNB-75 CNS
[17] = tested on: SK-MEL-5 melanoma
[18] = tested on: DU-145 prostate
[19] = tested on: HS 578T breast
[20] = tested on: HCT-15 colon
[21] = tested on: CAKI-1 renal
[22] = tested on: SW-620 colon
[23] = tested on: NCI-H226 lung
[24] = tested on: SK-OV-3 ovarian
[25] = tested on: HT29 colon
[26] = tested on: OVCAR-5 ovarian
[27] = tested on: EKVX NSCLC
[28] = tested on: A549 NSCLC
[29] = tested on: SR leukemia
[30] = tested on: COLO 205 colon
[31] = tested on: MDA-MB-231 breast
[32] = tested on: SK-MEL-28 melanoma
[33] = tested on: PC-3 prostate
[34] = tested on: A498 renal
[35] = tested on: KM12 colon
[36] = tested on: ACHN renal
[37] = tested on: 786-0 renal
[38] = tested on: OVCAR-3 ovarian
[39] = tested on: SN12C renal
[40] = tested on: UACC-62 melanoma
[41] = tested on: SF-268 CNS
[42] = tested on: UACC-257 melanoma
[43] = tested on: T-47D breast
[44] = tested on: MDA-MB-468 breast
[45] = tested on: HOP-62 NSCLC
[46] = tested on: TK-10 renal
[47] = tested on: SF-539 CNS
[48] = tested on: NCI-H322M lung
[49] = tested on: NCI-H522 lung
[50] = tested on: SNB-19 CNS
[51] = tested on: CCRF-CEM leukemia
[52] = tested on: OVCAR-8 ovarian
[53] = tested on: MOLT-4 leukemia
[54] = tested on: MCF7 breast
[55] = tested on: HCC-2998 colon
[56] = tested on: NCI-H460 NSCLC

NC(=O)c1ccc(I)c([N+](=O)[O-])c1
39.9 µM: TGI [26]
78.9 µM: TGI [9]
52.5 µM: TGI [5]
95.7 µM: TGI [48]
31.9 µM: TGI [2]
23.3 µM: TGI [44]
57.3 µM: TGI [29]
38.1 µM: TGI [43]
> 100 µM: TGI [1] | TGI [6] | TGI [8] | TGI [10] | TGI [11] | TGI [12] | TGI [14] | TGI [15] | TGI [16] | TGI [18] | TGI [19] | TGI [20] | TGI [22] | TGI [23] | TGI [24] | TGI [25] | TGI [28] | TGI [30] | TGI [31] | TGI [32] | TGI [33] | TGI [34] | TGI [35] | TGI [36] | TGI [37] | TGI [39] | TGI [40] | TGI [41] | TGI [42] | TGI [46] | TGI [47] | TGI [50] | TGI [52] | TGI [54] | TGI [56]
38.8 µM: TGI [53]
45.3 µM: TGI [51]
89.3 µM: TGI [17]
72.8 µM: TGI [13]
56.2 µM: TGI [55]
42.8 µM: TGI [3]
58.4 µM: TGI [38]
30.1 µM: TGI [49]
36.3 µM: TGI [4]
32.1 µM: TGI [7]
36.7 µM: TGI [45]
inactive: GI50 [1] 71.1 µM | GI50 [2] 17.9 µM | GI50 [3] 21.7 µM | GI50 [4] 21.4 µM | GI50 [5] 24.3 µM | GI50 [6] > 100 µM | GI50 [7] 18 µM | GI50 [8] 97.7 µM | GI50 [9] 33 µM | GI50 [10] 53.1 µM | GI50 [11] > 100 µM | GI50 [12] 31 µM | GI50 [13] 26.8 µM | GI50 [14] 40.6 µM | GI50 [15] > 100 µM | GI50 [16] 21.4 µM | GI50 [17] 25.2 µM | GI50 [18] > 100 µM | GI50 [19] 32.4 µM | GI50 [20] 44.1 µM | GI50 [21] 20.6 µM | GI50 [22] > 100 µM | GI50 [23] 53.4 µM | GI50 [24] 68.7 µM | GI50 [25] 44 µM | GI50 [26] 21 µM | GI50 [27] 19.4 µM | GI50 [28] > 100 µM | GI50 [29] 25 µM | GI50 [30] > 100 µM | GI50 [31] 70.2 µM | GI50 [32] 44.3 µM | GI50 [33] > 100 µM | GI50 [34] 91.6 µM | GI50 [35] 57.4 µM | GI50 [36] > 100 µM | GI50 [37] > 100 µM | GI50 [38] 23.6 µM | GI50 [39] 62.7 µM | GI50 [40] 39 µM | GI50 [41] > 100 µM | GI50 [42] 39.8 µM | GI50 [43] 21 µM | GI50 [44] 10 µM | GI50 [45] 17.9 µM | GI50 [46] > 100 µM | GI50 [47] > 100 µM | GI50 [48] 33 µM | GI50 [49] 15.4 µM | GI50 [50] > 100 µM | GI50 [51] 21.4 µM | GI50 [52] > 100 µM | GI50 [53] 20.5 µM | GI50 [54] > 100 µM | GI50 [55] 28.2 µM | GI50 [56] 78.5 µM
36.1 µM: TGI [21]
35.2 µM: TGI [27]
